According to the OPERA property sets (Mansouri et al. 2018):

`CCOC(=O)C(C)Oc1ccc(-n2sc3ccccc3c2=O)cc1` (stereo not given) gave a logP of 3.89. Work on `CCC(C)NC(=O)COC(=O)Cc1ccc2cc(OC)ccc2c1` (stereo not given) yielded a logP of 3.31. For `CN(C)C(=O)Oc1ccc(Br)cc1`, the logP was 2.46. `C#CCCOC(=O)Nc1ccc(OCC)c(OCC)c1` gave a logP of 2.54. For `N#CN=C1NCCN1Cc1ccc(Cl)nc1`, the logP was 0.77. Work on `CCCCCOc1ccccc1NC(=O)OC1CCCCC1CN(C)C` (stereo not given) yielded a logP of 5.46. For `C#CCOc1cc(NC=NOCC=C)cc(Cl)c1OCC#C`, the logP was 2.7. For `CC(=O)NC(CCCNC(=O)NCCCl)C(=O)NCc1ccccc1` (stereo not given), the logP was 0.34. With `CC(=O)Nc1n[n+]([O-])c2ccccc2[n+]1[O-]` the logP was -0.6. `C#CCON=CNc1cc(F)c(OCC#C)c(OCC#C)c1` showed a logP of 1.8. Compound `CC(=O)Oc1cccc(C(=O)O)c1` has a logP of 1.49. Compound `CCCN(CCCC(NC(C)=O)C(=O)NCc1ccccc1)C(=O)N(C)N=O` (stereo not given) has a logP of 1.61. With `CCCC(=O)Oc1ccccc1C(=O)O` the logP was 2.2. Compound `C=CCN(N=O)C(=O)N(CCCCC(NC(C)=O)C(=O)Nc1ccccc1)Cc1ccccc1` (stereo not given) has a logP of 2.7. `CC1CCC2C(C)COC3OC4(C)CCC1C32OO4` (stereo not given) gave a logP of 3.16. `CN(C)C(=O)Oc1ccc(C#N)cc1` showed a logP of 1.21. With `COc1ccc2cc(CC(=O)OCC(=O)N(C)C)ccc2c1` the logP was 2.23. With `CCOC(=O)COc1ccc(-n2sc3ccccc3c2=O)cc1` the logP was 2.96. `COc1ccc2cc(CC(=O)OCC(=O)N(C(C)C)C(C)C)ccc2c1` showed a logP of 3.89. `COc1ccc2cc(CC(=O)O)ccc2c1` showed a logP of 2.82. In the case of `Cc1ccc(CC2CCCC2(O)Cn2cncn2)cc1` (stereo not given), the logP is reported as 2.71. `CC(=O)c1ccc(OC(=O)N(C)C)cc1` showed a logP of 1.27. In the case of `C=CCN1CCN(CC=C)C1=S`, the logP is reported as 1.63. `O=C1NC(=O)C(c2ccccc2)(c2ccccc2)N1S(=O)(=O)c1ccc(Cl)cc1` showed a logP of 4.48. For `CCC(C)c1ccc(OC(=O)N(C)C)cc1` (stereo not given), the logP was 3.62. In the case of `CCNC(=O)COC(=O)Cc1ccc2cc(OC)ccc2c1`, the logP is reported as 2.65. In the case of `COC(=O)NC(=S)Nc1ccccc1N`, the logP is reported as 0.7. `CC(=O)NC(CCCNC(=O)N(C)N=O)C(=O)NCc1ccccc1` (stereo not given) gave a logP of 0.98. `Cn1c(N)c(N)c(=O)[nH]c1=O` showed a logP of -1.4. For `CCCc1ccc(OC(=O)N(C)C)cc1`, the logP was 3.15. Work on `COc1cccc(OC)c1C(=O)Nc1nnc(-c2ccc(Br)cc2)s1` yielded a logP of 3.92. `COc1ccc2cc(CC(=O)OCC(=O)N3CCCC3)ccc2c1` showed a logP of 2.71. For `C=CCN(N=O)C(=O)NCCCCC(NC(C)=O)C(=O)NCc1ccccc1` (stereo not given), the logP was 1.62. In the case of `C#CCOc1ccc(NC=NOCC)cc1OCC#C`, the logP is reported as 1.9. Compound `CC(=O)NC(CCCCNC(=O)NCCCl)C(=O)NCc1ccccc1` (stereo not given) has a logP of 0.61. Compound `COc1cccc(OC)c1C(=O)Nc1nnc(-c2ccc(Cl)cc2)s1` has a logP of 3.96. With `COc1cccc(OC)c1C(=O)Nc1nnc(-c2ccccc2)s1` the logP was 3.5. In the case of `COC(=O)Cc1ccc(-n2sc3ccccc3c2=O)cc1`, the logP is reported as 2.83. Compound `CCSc1nnc(C(C)(C)C)c(=O)n1N` has a logP of 2.08. For `CN(C)C(=O)Oc1cccc(Cl)c1`, the logP was 2.33. Compound `CCOc1ccc(NC(=O)OCCBr)cc1OCC` has a logP of 2.78. Work on `COc1ccccc1NC(=O)OC1CCCCC1CN(C)C` (stereo not given) yielded a logP of 3.55. With `OC1(Cn2cncn2)CCCC1Cc1ccccc1` (stereo not given) the logP was 2.26. In the case of `CCCCCCCCCCn1c(N)c(N)c(=O)[nH]c1=O`, the logP is reported as 3.04. `CCCCCCCOc1ccccc1NC(=O)OC1CCCCC1CN(C)C` (stereo not given) gave a logP of 6.3. With `Nc1ncn(C2CC(O)C(CO)O2)c(=O)n1` (stereo not given) the logP was -1.89. For `CCOC(=O)C(CC)c1ccc(-n2sc3ccccc3c2=O)cc1` (stereo not given), the logP was 4.11. Work on `Clc1ccc(-c2ccc(Cl)c(Cl)c2)cc1` yielded a logP of 5.9. `C#CC(CC)OC(=O)Nc1ccc(OCC)c(OCC)c1` (stereo not given) showed a logP of 3.07. With `CC1CC2=NOS3=C2C(=NO3)C1` the logP was 1.5. `COc1ccc2cc(CC(=O)OCC(=O)N(CCO)CCO)ccc2c1` showed a logP of 1.41. In the case of `O=C1NC(=O)C(c2ccccc2)(c2ccccc2)N1S(=O)(=O)c1ccc([N+](=O)[O-])cc1`, the logP is reported as 4.04. Work on `OC1(Cn2cncn2)CCCC1Cc1ccc(Cl)cc1` (stereo not given) yielded a logP of 3.11. `CCCN(CCCCC(NC(C)=O)C(=O)NCc1ccccc1)C(=O)NC` (stereo not given) showed a logP of 1.6. For `[O-][n+]1nc2ccccc2c2ccccc21`, the logP was 2.24. Compound `COc1ccc2c(c1OC)-c1ccc(OC)c(=O)cc1C(NC(C)=O)CC2` (stereo not given) has a logP of 1.02. `C=CCOc1ccc2c(c1)[n+]([O-])nc(N)[n+]2[O-]` gave a logP of 0.76. In the case of `C#CCC(C)OC(=O)Nc1ccc(OCC)c(OCC)c1` (stereo not given), the logP is reported as 2.86. Compound `CC=CCOCN(C(=O)CCl)c1c(CC)cccc1CC` has a logP of 3.51. `C#CCOc1ccc(NC=NOC)cc1OCC#C` gave a logP of 1.6. `CCOc1ccc(NC(=O)OC(C)CCl)cc1OCC` (stereo not given) gave a logP of 2.97. `CCOC(=O)CCCOc1ccc(-n2sc3ccccc3c2=O)cc1` gave a logP of 3.96. `OC1(Cn2cncn2)CCCC1Cc1ccc(-c2ccccc2)cc1` (stereo not given) gave a logP of 3.92. For `CC(C)=CCN1CC[C@@]2(C)c3cc(O)ccc3C[C@@H]1[C@@H]2C`, the logP was 4.64. In the case of `CC(=O)NC(CCCCNC(=O)N(C)N=O)C(=O)NCc1ccccc1` (stereo not given), the logP is reported as 1.18. `CCCCCCOc1ccccc1NC(=O)OC1CCCCC1CN(C)C` (stereo not given) gave a logP of 5.9. With `CC(=O)Oc1ccc(C(=O)O)cc1` the logP was 1.48. In the case of `COc1ccc2cc(CC(=O)OCC(=O)NC(C)C)ccc2c1`, the logP is reported as 2.89. In the case of `COC1N(C2CC(N=[N+]=[N-])C(CO)O2)C(=O)NC(=O)C1(C)I` (stereo not given), the logP is reported as 1.03. `COc1ccc2cc(CC(=O)OCC(=O)NC(C)(C)C)ccc2c1` gave a logP of 3.6. With `CC(C(N)=O)c1ccc(-n2sc3ccccc3c2=O)cc1` (stereo not given) the logP was 2.07. For `COc1ccc(-c2nnc(NC(=O)c3c(OC)cccc3OC)s2)cc1`, the logP was 3.56. With `C=CCN(N=O)C(=O)NCCCC(NC(C)=O)C(=O)NCc1ccccc1` (stereo not given) the logP was 1.3. Compound `Nc1n[n+]([O-])c2cc(OCC(O)CO)ccc2[n+]1[O-]` (stereo not given) has a logP of -1.1. Work on `COC1N(C2CC(N=[N+]=[N-])C(CO)O2)C(=O)NC(=O)C1(C)Cl` (stereo not given) yielded a logP of 0.84. For `CCC(=O)Oc1ccccc1C(=O)O`, the logP was 1.67. For `CCCCc1ccc(CO)cc1`, the logP was 3. `CCOC(=O)Cc1ccc(-n2sc3ccccc3c2=O)cc1` showed a logP of 3.33. Work on `COc1ccc2cc(CC(=O)OCC(=O)N(C)CCO)ccc2c1` yielded a logP of 1.58. `CC(C)(C)C(=O)OCn1cc(F)c(=O)[nH]c1=O` showed a logP of 0.66. For `C#CCNC(=O)NCCCCC(NC(C)=O)C(=O)NCc1ccccc1` (stereo not given), the logP was 0.23. Compound `CCCN(CCCCC(NC(C)=O)C(=O)NCc1ccccc1)C(=O)N(C)N=O` (stereo not given) has a logP of 1.73. `CCCCCCn1c(N)c(N)c(=O)[nH]c1=O` gave a logP of 1.01. Work on `C#CCOc1cc(NC=NOCC)cc(Cl)c1OCC#C` yielded a logP of 2.6. With `COc1ccc2c(c1)[n+]([O-])nc(N)[n+]2[O-]` the logP was 0. Compound `CCCCNC(=O)COC(=O)Cc1ccc2cc(OC)ccc2c1` has a logP of 3.57. With `CCOc1ccc(-c2nnc(NC(=O)c3c(OC)cccc3OC)s2)cc1` the logP was 3.75. With `c1ccc(CC2CC3=NOS4=C3C(=NO4)C2)cc1` the logP was 2.8. Work on `CCOC(=O)C(C)c1ccc(-n2sc3ccccc3c2=O)cc1` (stereo not given) yielded a logP of 3.91. Compound `CCOc1ccc(NC(=O)OCCCl)cc1OCC` has a logP of 2.62. `CCC1CCC(Cc2ccc(Cl)cc2)C1(O)Cn1cncn1` (stereo not given) showed a logP of 3.71. `CCCN(CCCC(NC(C)=O)C(=O)NCc1ccccc1)C(=O)NC` (stereo not given) gave a logP of 1.47. `COc1ccc2cc(CC(=O)OCC(N)=O)ccc2c1` showed a logP of 1.88. For `CCCN(CCC)C(=O)COC(=O)Cc1ccc2cc(OC)ccc2c1`, the logP was 4.04. With `CC1(C)CC2=NOS3=C2C(=NO3)C1` the logP was 1.9. In the case of `CCOC(=O)CCOc1ccc(-n2sc3ccccc3c2=O)cc1`, the logP is reported as 3.59. With `CC(C)c1ccc(OC(=O)N(C)C)cc1` the logP was 3.04. For `CCCCCCCCn1c(N)c(N)c(=O)[nH]c1=O`, the logP was 2.05. `C=CCNC(=O)NCCCC(NC(C)=O)C(=O)NCc1ccccc1` (stereo not given) gave a logP of 0.68. For `C=CCN(CC=C)C(=O)COC(=O)Cc1ccc2cc(OC)ccc2c1`, the logP was 3.67. `ClC1=C(Cl)C2C(C1Cl)C1(Cl)C(Cl)C(Cl)C2(Cl)C1(Cl)Cl` (stereo not given) gave a logP of 6.08. Compound `CN(C)C(=O)Oc1cccc([N+](=O)[O-])c1` has a logP of 1.56. With `CCCCOc1ccccc1NC(=O)OC1CCCCC1CN(C)C` (stereo not given) the logP was 5.01. For `CNC(=O)NCCCC(NC(C)=O)C(=O)NCc1ccccc1` (stereo not given), the logP was -0.33. Compound `O=C1NC(Cc2c[nH]c3ccccc23)C(=O)NC1Cc1ccc(O)cc1` (stereo not given) has a logP of 1.05. Work on `C#CCON=CNc1cc(Cl)c(OCC#C)c(OCC#C)c1` yielded a logP of 2.3. `CCN(CC)C(=O)COC(=O)Cc1ccc2cc(OC)ccc2c1` gave a logP of 3.05. Work on `C1SCC2=NOS3=C2C1=NO3` yielded a logP of 1.2. With `CCOc1cc[n+]([O-])cc1` the logP was -0.53. In the case of `O=C1NC(=O)C(c2ccccc2)(c2ccccc2)N1S(=O)(=O)c1ccccc1`, the logP is reported as 4.04. `C=CCNC(=O)N(CCC)CCCCC(NC(C)=O)C(=O)NCc1ccccc1` (stereo not given) gave a logP of 1.75. `CN(C)C(=O)Oc1ccc(F)cc1` gave a logP of 1.58. `Cc1cccc(O)c1C` showed a logP of 2.48. Compound `CNC(=O)COC(=O)Cc1ccc2cc(OC)ccc2c1` has a logP of 2.19. For `COc1n[n+]([O-])c2ccccc2[n+]1[O-]`, the logP was -0.3. `COCCNC(=O)Cn1ccnc1[N+](=O)[O-]` gave a logP of -0.77. For `CC(=O)NC(CCCCN(Cc1ccccc1)C(=O)N(C)N=O)C(=O)NCc1ccccc1` (stereo not given), the logP was 2.12. With `CCCNC(=O)COC(=O)Cc1ccc2cc(OC)ccc2c1` the logP was 3.1. `COc1ccc2cc(CC(=O)OCC(=O)N3CCOCC3)ccc2c1` gave a logP of 2.13. Compound `C#CCOc1cc(NC=NOC)cc(Cl)c1OCC#C` has a logP of 2.3. Compound `CC(=O)c1cc[n+]([O-])cc1` has a logP of -0.93. `CN(C)C(=O)Oc1cccc(C#N)c1` showed a logP of 1.23. With `COC1N(C2CC(N=[N+]=[N-])C(CO)O2)C(=O)NC(=O)C1(C)Br` (stereo not given) the logP was 1.12. Work on `CC(C)(C)c1ccc(CC2CCCC2(O)Cn2cncn2)cc1` (stereo not given) yielded a logP of 3.97. Work on `C=CCC(C)OC(=O)Nc1ccc(OCC)c(OCC)c1` (stereo not given) yielded a logP of 3.37. Work on `C=CCNC(=O)NCCCCC(NC(C)=O)C(=O)NCc1ccccc1` (stereo not given) yielded a logP of 0.76. `O=S1CC2=NOS3=C2C(=NO3)C1` gave a logP of -0.3. Compound `C#CCOc1cc(NC=NOC)cc(F)c1OCC#C` has a logP of 1.8. `CNC(=O)N(CCCCC(NC(C)=O)C(=O)NCc1ccccc1)Cc1ccccc1` (stereo not given) showed a logP of 1.99. `CNC(=O)ON=C(CSC)C(C)(C)C` gave a logP of 2.75. `Cc1cc2c(cc1C)[n+]([O-])c(N)n[n+]2[O-]` gave a logP of 0.56. `CCCOc1ccccc1NC(=O)OC1CCCCC1CN(C)C` (stereo not given) gave a logP of 4.44. With `C#CCOc1cc(NC=NOCOC)cc(Cl)c1OCC#C` the logP was 2.2. For `CCCc1ccc(CO)cc1`, the logP was 2.67. In the case of `C#CCNC(=O)NCCCC(NC(C)=O)C(=O)NCc1ccccc1` (stereo not given), the logP is reported as -0.31.
